# From patent US20220249441A1, “Homodimeric Tobramycin Adjuvant Repurposes Novobiocin as an Effective Antibacterial Agent Against Gram-Negative Bacteria” (priority 2019, published 2022)
# Experiments:
# [1] = test system: P. aeruginosa PAO1; assay: Outer membrane permeabilization assay (NPN uptake); type: cell-based, Pseudomonas aeruginosa
# Description: Outer Membrane Permeabilization Assay. […] Briefly, an overnight grown P. aeruginosa PAO1 culture was subcultured (1 in 100) in fresh LB broth and grown to a mid-logarithmic phase (approximately 2 h, OD600=0.5-0.6). The cells were harvested by centrifuging for 10 min at 1000 g and room temperature, washed twice in PBS, and resuspended in half volume of PBS. This suspension was used in standard microtiter plate assay. […] PMBN, a known outer membrane permeabilizer, served as a positive control while cells +NPN (without test compounds) served as a negative control. Four independent replicates were conducted, and the data were corrected for any background fluorescence.
# [2] = test system: P. aeruginosa PAO1 and efflux deficient mutants, MDR/XDR isolates; assay: microbe, parasite or virus in culture; type: cell-based, Pseudomonas aeruginosa
# Description: Antimicrobial Susceptibility Assay. The in vitro antimicrobial activity of all compounds/antibiotics against a panel of bacteria was evaluated by microbroth dilution method in accordance with the Clinical and Laboratory Standards Institute (CLSI) guidelines (using ATCC strains as quality control strains) (54). […] The broth with or without bacterial cells was used as positive or negative control, respectively.
# [3] = test system: A. baumannii ATCC 17978; assay: Time-kill assay; type: cell-based, Acinetobacter baumannii; details: novobiocin 32 μg/ml, after 24 h
# Description: (§1) Time-kill Assay. […] At specific time intervals (0, 1, 3, 6, 9, and 24 h), 100 μl was taken from each sample, serially diluted in sterile PBS, plated on LB agar plates, and incubated at 37° C. in a humid 5% CO2-enriched atmosphere. Bacterial colonies were counted after 20 h of incubation.
# [4] = test system: A. baumannii ATCC 17978 and resistant mutants; assay: microbe, parasite or virus in culture; type: cell-based, Acinetobacter baumannii; details: Acinetobacter baumannii
# [5] = test system: P. aeruginosa PAO1; assay: Time-kill assay; type: cell-based, Pseudomonas aeruginosa; details: LB media, novobiocin 32 μg/ml, compound 1 7.1 μM, 24 h
# Description: as §1
# [6] = test system: E. coli ATCC 25922; assay: Time-kill assay; type: cell-based, Escherichia coli; details: novobiocin 32 μg/ml, compound 1 7.1 μM
# Description: as §1
SMILES,outer membrane permeabilization (NPN fluorescence) [1],NPN fluorescence relative to PMBN (8 μg/ml) ([1]; compound 1 at 16 μg/ml),MIC of Compound 1 ([2]; PAO1 (wild-type)),MIC of Compound 1 ([2]; PAO200 (efflux-deficient)),MIC of Compound 1 ([2]; PAO750 (efflux-deficient)),time-kill outcome [3],"MIC ([4]; ATCC17978, 18 h, Mutant C (seven serial passages, sub-MICs novobiocin + 7.1 μM compound 1))","MIC ([4]; ATCC17978, Mutant A (seven serial passages, sub-MICs novobiocin))","MIC ([4]; ATCC17978, Mutant B (seven serial passages, sub-MICs colistin))",time-kill outcome [5],incubation time after which bactericidal [6]
"NC[C@H]1O[C@H](O[C@H]2[C@H](OCCCCc3cn(CCCCO[C@@H]4[C@@H](O[C@H]5O[C@H](CO)[C@@H](O)[C@H](N)[C@H]5O)[C@H](N)C[C@H](N)[C@H]4O[C@H]4O[C@H](CN)[C@@H](O)C[C@H]4N)nn3)[C@@H](O[C@H]3O[C@H](CO)[C@@H](O)[C@H](N)[C@H]3O)[C@H](N)C[C@@H]2N)[C@H](N)C[C@@H]1O.O=C(O)C(F)(F)F.O=C(O)C(F)(F)F.O=C(O)C(F)(F)F.O=C(O)C(F)(F)F.O=C(O)C(F)(F)F.O=C(O)C(F)(F)F.O=C(O)C(F)(F)F.O=C(O)C(F)(F)F.O=C(O)C(F)(F)F.O=C(O)C(F)(F)F [Compound 1, Tobramycin Homodimer 1]",dose-dependent,increased fluorescence,>128 µg/mL,>128 µg/mL,>128 µg/mL,,,,,,
CO[C@@H]1[C@@H](OC(N)=O)[C@@H](O)[C@H](Oc2ccc3c(O)c(NC(=O)c4ccc(O)c(CC=C(C)C)c4)c(=O)oc3c2C)OC1(C)C [Novobiocin],,,,,,bacteriostatic,128 µg/mL,2050 µg/mL,< 0.031 µg/mL,bacterial growth identical to their respective controls,24 h
